Patent US20120095055A1, “HEXAHYDROCYCLOPENTYL[f]INDAZOLE 5-HYDROXYMETHYL ETHANOLS AND DERIVATIVES THEREOF AS SELECTIVE GLUCOCORTICOID RECEPTOR MODULATORS” (Merck Sharp & Dohme, Corp., priority 2009, published 2012)

Molecular target: T1, human GR (Homo sapiens, UniProt P04150)
T1 construct: naturally expresses the human GR; endogenous in cells
T1 sequence (P04150 1-777): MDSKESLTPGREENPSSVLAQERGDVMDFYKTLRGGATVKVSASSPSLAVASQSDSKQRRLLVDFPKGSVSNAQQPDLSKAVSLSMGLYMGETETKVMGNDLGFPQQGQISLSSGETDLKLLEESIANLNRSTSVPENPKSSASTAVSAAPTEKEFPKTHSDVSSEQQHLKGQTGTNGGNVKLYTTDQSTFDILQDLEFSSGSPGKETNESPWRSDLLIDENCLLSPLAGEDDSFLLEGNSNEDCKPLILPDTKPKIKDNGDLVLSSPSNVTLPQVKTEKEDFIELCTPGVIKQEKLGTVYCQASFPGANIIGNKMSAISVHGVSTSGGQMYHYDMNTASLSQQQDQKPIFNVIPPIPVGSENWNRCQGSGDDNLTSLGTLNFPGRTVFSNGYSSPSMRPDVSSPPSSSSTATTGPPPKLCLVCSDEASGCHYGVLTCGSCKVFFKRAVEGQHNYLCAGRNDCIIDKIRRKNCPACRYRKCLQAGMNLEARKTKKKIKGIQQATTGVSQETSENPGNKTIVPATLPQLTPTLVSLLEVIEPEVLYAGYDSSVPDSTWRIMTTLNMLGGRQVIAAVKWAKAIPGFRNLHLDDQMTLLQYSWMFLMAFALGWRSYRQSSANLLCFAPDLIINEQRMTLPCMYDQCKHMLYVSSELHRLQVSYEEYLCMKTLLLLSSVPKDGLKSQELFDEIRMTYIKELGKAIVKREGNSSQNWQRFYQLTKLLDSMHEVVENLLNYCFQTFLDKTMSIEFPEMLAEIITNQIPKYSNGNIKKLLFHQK
Experiment: Trans-Activation Modulation of Glucocorticoid Receptor Assay (GRAMMER), MMTV-LUC reporter in A549 cells
Assay type: cell-based
Settings: for Emax: A549, Emax relative to the activity obtained with 300 nM dexamethasone, read-out: Transactivation A549 Cells GRAMMER Emax (%); for EC50: inflection point (IP), MMTV-LUC reporter, read-out: Transactivation A549 Cells GRAMMER IP; for Transactivation A549 Cells GRAMMER Emax (%): Emax relative to the activity obtained with 300 nM dexamethasone
Source text: This assay assesses the ability of test compounds to control transcription from the MMTV-LUC reporter gene in lung adenocarcinoma A549 cells or HeLa cells, a human […] cell line that naturally expresses the human GR. The assay measures induction of a modified MMTV LTR/promoter linked to the LUC reporter gene.
The routine transient assay consists of plating 7,000-25,000 cells/well of a white, clear-bottom 96-well plate. Alternatively, 384-well plates can be used at a cell concentration of 10,000/well. The media that the cells are plated in is “exponential growth medium” which consists of phenol red-free RPMI1640 containing 10% FBS, 4 mM L-glutamine, 20 mM HEPES, 10 ug/mL human insulin, and 20 ug/mL gentamicin. Incubator conditions are 37° C. and 5% CO2. The transfection is done in batch mode. The cells are trypsinized and counted to the right cell number in the proper amount of fresh media. It is then gently mixed with the FuGene6/DNA mix and plated onto the 96 or 384-well plate, all the wells receive 100 uL or 40 uL, respectively, of medium+lipid/DNA complex then incubated 37° C. overnight. The transfection cocktail consists of serum-free OptiMEM, FuGene6 reagent and DNA. The manufacturer's (Roche Biochemical) protocol for cocktail setup is as follows: The lipid to DNA ratio is approximately 2.5:1 and the incubation time is 20 min at room temperature. Sixteen to 24 hours after transfection, the cells are treated with dexamethasone to a final concentration of 10 nM as well as the compound of interest, such that final DMSO (vehicle) concentration is equal to or less than 1%. Each plate also contains samples that are treated with 10 nM dexamethasone alone, which is used as the 100% activity control. The cells are exposed to the compounds for 24 hours. After 24 hours, the cells are lysed by a Promega cell culture lysis buffer for approximately 30 min and then the luciferase activity in the extracts is assayed in the 96-well format luminometer. In 384-well format, Steady-Glo (Promega) or Steady-Lite (PerkinElmer) can be used by adding an equal volume of reagent to the media present in each well. Activity induced by 10 nM dexamethasone alone is set at 100% activity. Antagonist activity is calculated by determining the decrease in dexamethasone-induced activity in response to compound treatment relative to samples that were treated with dexamethasone alone. Results are expressed as % inhibition of 10 nM dexamethasone activity or as fold of 10 nM dexamethasone activity. This transactivation assay can be performed in an agonist and antagonist mode to identify these different activities.
Activity of test compounds is calculated as the Emax relative to the activity obtained with 300 nM dexamethasone. Activity of test compounds is calculated as the Emax relative to the activity obtained with 300 nM DEX. The exemplified tissue selective glucocorticoid receptor modulators of the present invention display agonist activity in this assay of greater than 5% and less than 100%, and maximal transactivation activity less then maximal transrepression activity. […]

SMILES	Emax [%]	EC50 [nM]	Transactivation A549 Cells GRAMMER Emax (%)
Cc1cccc(C(O)C[C@]2(CO)CCC3=Cc4c(cnn4-c4ccc(F)cc4)C[C@@]32C)c1 (single isomer, unassigned) [Example 5a]	65.5	78.8	
C[C@]12Cc3cnn(-c4ccc(F)cc4)c3C=C1CC[C@@]2(CO)CC(O)c1cc(F)cc(F)c1 (stereo partly drawn) [Example 9, 1-(3,5-difluorophenyl)-2-[(4αS,5R)-1-(4-fluorophenyl)-5-(hydroxymethyl)-4α-methyl-1,4,4α,5,6,7-hexahydrocyclopenta[f]indazol-5-yl]ethanol]	80.3	3.2	
C[C@]12Cc3cnn(-c4ccc(F)cc4)c3C=C1CC[C@@]2(CO)CC(O)c1ccccn1 (single isomer, unassigned) [Example 1a]		5.6	83.9
Cc1cccc(C(O)C[C@]2(CO)CCC3=Cc4c(cnn4-c4ccc(F)cc4)C[C@@]32C)c1 (single isomer, unassigned) [Example 5b]		23.6	58.4
C[C@]12Cc3cnn(-c4ccc(F)cc4)c3C=C1CC[C@@]2(CO)CC(O)c1ccccc1Cl (single isomer, unassigned) [Example 3a]	127	38.8	
C[C@]12Cc3cnn(-c4ccc(F)cc4)c3C=C1CC[C@@]2(CO)CC(O)c1cccc(C(F)(F)F)c1 (single isomer, unassigned) [Example 7b]		39.3	55.8
Cc1ccc(C(O)C[C@]2(CO)CCC3=Cc4c(cnn4-c4ccc(F)cc4)C[C@@]32C)cc1 (single isomer, unassigned) [Example 2a]		485	46.6
C[C@]12Cc3cnn(-c4ccc(F)cc4)c3C=C1CC[C@@]2(CO)CC(O)c1ccccc1F (stereo partly drawn) [Example 4, 1-(2-fluorophenyl)-2-[(4αS,5R)-1-(4-fluorophenyl)-5-(hydroxymethyl)-4α-methyl-1,4,4α,5,6,7-hexahydrocyclopenta[f]indazol-5-yl]ethanol]	80.3	39.7	
C[C@]12Cc3cnn(-c4ccc(F)cc4)c3C=C1CC[C@@]2(CO)CC(O)c1cccc(Cl)c1 (stereo partly drawn) [Example 8, 1-(3-chlorophenyl)-2-[(4αS,5R)-1-(4-fluorophenyl)-5-(hydroxymethyl)-4α-methyl-1,4,4α,5,6,7-hexahydrocyclopenta[f]indazol-5-yl]ethanol]	56	32.2	

The next lines start with the values.

Emax [%]	EC50 [nM]	Transactivation A549 Cells GRAMMER Emax (%)	SMILES
	77.5	35.6	C[C@]12Cc3cnn(-c4ccc(F)cc4)c3C=C1CC[C@@]2(CO)CC(O)c1ccncc1 (single isomer, unassigned) [Example 17b]
7.9	291		CC(O)(C[C@]1(CO)CCC2=Cc3c(cnn3-c3ccc(F)cc3)C[C@@]21C)c1cccnc1 (single isomer, unassigned) [Example 25a]
7.6	470		COc1ccc(C(O)C[C@]2(CO)CCC3=Cc4c(cnn4-c4ccc(F)cc4)C[C@@]32C)nc1 (single isomer, unassigned) [Example 24a]
	206	32.6	CC(C)C(O)C[C@]1(CO)CCC2=Cc3c(cnn3-c3ccc(F)cc3)C[C@@]21C (single isomer, unassigned) [Example 14b]
25	479		CC(C)C(O)C[C@]1(CO)CCC2=Cc3c(cnn3-c3ccc(F)cc3)C[C@@]21C (single isomer, unassigned) [Example 14a]
	121	13.7	C[C@]12Cc3cnn(-c4ccccc4)c3C=C1CC[C@@]2(CO)CC(O)c1cccnc1 (single isomer, unassigned) [Example 29b]
	144	24.8	COc1cccnc1C(O)C[C@]1(CO)CCC2=Cc3c(cnn3-c3cccc(F)c3)C[C@@]21C (single isomer, unassigned) [Example 26a]
73.1	8.8		C[C@]12Cc3cnn(-c4ccc(F)cc4)c3C=C1CC[C@@]2(CO)CC(O)c1ccccc1 (single isomer, unassigned) [Example 13a]
	808	11.3	C[C@]12Cc3cnn(-c4ccc(F)cc4)c3C=C1CC[C@@]2(CO)CC(O)C1CC1 (single isomer, unassigned) [Example 20b, 1-cyclopropyl-2-[(4αS)-1-(4-fluorophenyl)-5-(hydroxymethyl)-4α-methyl-1,4,4α,5,6,7-hexahydrocyclopenta[f]indazol-5-yl]ethanol]
	168	30.7	C[C@]12Cc3cnn(-c4ccccc4)c3C=C1CC[C@@]2(CO)CC(O)c1cccnc1 (single isomer, unassigned) [Example 29a]
55.3	22.3		C[C@]12Cc3cnn(-c4ccc(F)cc4)c3C=C1CC[C@@]2(CO)CC(O)C1CCCCC1 (single isomer, unassigned) [Example 18a, 1-cyclohexyl-2-[(4αS)-1-(4-fluorophenyl)-5-(hydroxymethyl)-4α-methyl-1,4,4α,5,6,7-hexahydrocyclopenta[f]indazol-5-yl]ethanol]
	149	39.3	C[C@]12Cc3cnn(-c4ccc(F)cc4)c3C=C1CC[C@@]2(CO)CC(O)c1cccnc1 (single isomer, unassigned) [Example 15b]
	59.6	56.2	C[C@]12Cc3cnn(-c4ccc(F)cc4)c3C=C1CC[C@@]2(CO)CC(O)C1CCCCC1 (single isomer, unassigned) [Example 18b, 1-cyclohexyl-2-[(4αS)-1-(4-fluorophenyl)-5-(hydroxymethyl)-4α-methyl-1,4,4α,5,6,7-hexahydrocyclopenta[f]indazol-5-yl]ethanol]
	357	6.8	C[C@]12Cc3cnn(-c4cccc(F)c4)c3C=C1CC[C@@]2(CO)CC(O)c1cccnc1 (single isomer, unassigned) [Example 27a]
